Measured values reported in article PMC6067006, “Functionality of Redox-Active Cysteines Is Required for Restriction of Retroviral Replication by SAMHD1” (Cell reports, 2018).

Tests used:
Assay in all cases: NMR-based dNTPase assay, activation by GTP
Assay type in all cases: biochemical
[1] = molecular target: T1, SAMHD1_114–626 (HD domain construct of SAMHD1) (Homo sapiens, UniProt Q9Y3Z3, C522S)
T1 construct: HD domain construct, residues 114-626, bacterial expression; nucleotide-dependent homotetramer; 10 cysteines
Description: NMR-based dNTPase assay, activation by GTP on SAMHD1_114–626 (HD domain construct of SAMHD1) | properties of the C522S mutant were indistinguishable from those of the WT protein

[2] = molecular target: T2, SAMHD1_114–626 (HD domain construct of SAMHD1) (Homo sapiens, UniProt Q9Y3Z3)
T2 construct: HD domain construct, residues 114-626, bacterial expression; nucleotide-dependent homotetramer; 10 cysteines
Procedure: NMR-based dNTPase assay, activation by GTP on SAMHD1_114–626 (HD domain construct of SAMHD1) | kcat and EC50^GTP parameters were determined by non-linear fitting

[3] = molecular target: T3, SAMHD1_114–626 (HD domain construct of SAMHD1) (Homo sapiens, UniProt Q9Y3Z3, C350S)
T3 construct: HD domain construct, residues 114-626, bacterial expression; nucleotide-dependent homotetramer; 10 cysteines
Description: (§1) NMR-based dNTPase assay, activation by GTP on SAMHD1_114–626 (HD domain construct of SAMHD1) | EC50) values for GTP-mediated activation for C341S and C350S were also higher

[4] = molecular target: T4, SAMHD1_114–626 (HD domain construct of SAMHD1) (Homo sapiens, UniProt Q9Y3Z3, C341S)
T4 construct: HD domain construct, residues 114-626, bacterial expression; nucleotide-dependent homotetramer; 10 cysteines
Description: as §1

T3 sequence (Q9Y3Z3 114-626 C350S): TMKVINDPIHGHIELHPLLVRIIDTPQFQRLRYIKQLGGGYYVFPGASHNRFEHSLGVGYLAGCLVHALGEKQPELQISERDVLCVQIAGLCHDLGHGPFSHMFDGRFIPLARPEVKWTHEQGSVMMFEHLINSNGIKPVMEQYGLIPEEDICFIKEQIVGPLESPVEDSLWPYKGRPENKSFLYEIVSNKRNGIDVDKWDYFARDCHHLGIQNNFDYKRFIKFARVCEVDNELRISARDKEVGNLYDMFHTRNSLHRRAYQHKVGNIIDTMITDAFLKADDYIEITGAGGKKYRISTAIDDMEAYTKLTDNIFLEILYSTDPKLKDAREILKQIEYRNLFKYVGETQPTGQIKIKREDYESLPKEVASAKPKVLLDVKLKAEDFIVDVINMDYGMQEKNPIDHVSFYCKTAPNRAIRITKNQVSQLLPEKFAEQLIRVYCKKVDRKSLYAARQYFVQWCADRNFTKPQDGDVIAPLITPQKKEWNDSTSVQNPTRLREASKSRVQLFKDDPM
T4 sequence (Q9Y3Z3 114-626 C341S): as the sequence (Q9Y3Z3 114-626 C350S) above, with C228S, S237C counted along it
T1 sequence (Q9Y3Z3 114-626 C522S): as the sequence (Q9Y3Z3 114-626 C350S) above, with S237C, C409S counted along it
T2 sequence (Q9Y3Z3 114-626): as the sequence (Q9Y3Z3 114-626 C350S) above, with S237C counted along it

- EC50 [1]: 4.8 µM
- EC50 [2]: 3.9 µM
- EC50 [3]: 8.1 µM
- EC50 [4]: 44.4 µM
SMILES: Nc1nc2c(ncn2[C@@H]2O[C@H](COP(=O)(O)OP(=O)(O)OP(=O)(O)O)[C@@H](O)[C@H]2O)c(=O)[nH]1 [GTP]
